Data on 12 molecules can be found in US10399940B2, “Substituted pyrrolidines and methods of use” (AbbVie S.à.r.l., priority 2016, dated 2019).

Where two headings read alike, the source gives them in different places.

The assay deals with T1, F508delCFTR (Homo sapiens, UniProt P13569, DEL508-508).
T1 construct: expressed in transfected cells; host or cells: CFBE41o- (human lung derived epithelial cell line), doxycycline-inducible expression
Kind of assay: Cell Surface Expression-Horse Radish Peroxidase (CSE-HRP) assay. Format: cell-based. Conditions: CFBE41o-F508delCFTR-HRP cells; for Maximum % activity (with co-corrector): with co-corrector (2 μM); for Maximum % activity (with co-corrector) / Maximum % activity (without co-corrector): normalized to on-plate positive control, highest concentration 20 μM. Summed up:
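CFBE41o- cells expressed F508delCFTR with HRP in the fourth exofacial loop, induced by 0.5 μg/mL doxycycline for 72 h at 37 °C. Compounds alone or with 2 μM co-corrector ran 18–24 h at 33 °C, 8-point 3-fold from 20 μM. Washed-cell luminol luminescence was normalized to DMSO and positive control, fitted sigmoidally for EC50 (three plates).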

The mark [1] stands for this setting: test compound without co-corrector, 18-24 hours at 33° C., read-out: EC50 (without co-corrector).
The mark [2] stands for this setting: with co-corrector (2 μM of 3-[(2R,4R)-4-({[1-(2,2-difluoro-1,3-benzodioxol-5-yl)cyclopropyl]carbonyl}amino)-7-methoxy-3,4-dihydro-2H-chromen-2-yl]benzoic acid), read-out: EC50 (with co-corrector).

T1 sequence (P13569 with tags, fused parts or gaps DEL508-508): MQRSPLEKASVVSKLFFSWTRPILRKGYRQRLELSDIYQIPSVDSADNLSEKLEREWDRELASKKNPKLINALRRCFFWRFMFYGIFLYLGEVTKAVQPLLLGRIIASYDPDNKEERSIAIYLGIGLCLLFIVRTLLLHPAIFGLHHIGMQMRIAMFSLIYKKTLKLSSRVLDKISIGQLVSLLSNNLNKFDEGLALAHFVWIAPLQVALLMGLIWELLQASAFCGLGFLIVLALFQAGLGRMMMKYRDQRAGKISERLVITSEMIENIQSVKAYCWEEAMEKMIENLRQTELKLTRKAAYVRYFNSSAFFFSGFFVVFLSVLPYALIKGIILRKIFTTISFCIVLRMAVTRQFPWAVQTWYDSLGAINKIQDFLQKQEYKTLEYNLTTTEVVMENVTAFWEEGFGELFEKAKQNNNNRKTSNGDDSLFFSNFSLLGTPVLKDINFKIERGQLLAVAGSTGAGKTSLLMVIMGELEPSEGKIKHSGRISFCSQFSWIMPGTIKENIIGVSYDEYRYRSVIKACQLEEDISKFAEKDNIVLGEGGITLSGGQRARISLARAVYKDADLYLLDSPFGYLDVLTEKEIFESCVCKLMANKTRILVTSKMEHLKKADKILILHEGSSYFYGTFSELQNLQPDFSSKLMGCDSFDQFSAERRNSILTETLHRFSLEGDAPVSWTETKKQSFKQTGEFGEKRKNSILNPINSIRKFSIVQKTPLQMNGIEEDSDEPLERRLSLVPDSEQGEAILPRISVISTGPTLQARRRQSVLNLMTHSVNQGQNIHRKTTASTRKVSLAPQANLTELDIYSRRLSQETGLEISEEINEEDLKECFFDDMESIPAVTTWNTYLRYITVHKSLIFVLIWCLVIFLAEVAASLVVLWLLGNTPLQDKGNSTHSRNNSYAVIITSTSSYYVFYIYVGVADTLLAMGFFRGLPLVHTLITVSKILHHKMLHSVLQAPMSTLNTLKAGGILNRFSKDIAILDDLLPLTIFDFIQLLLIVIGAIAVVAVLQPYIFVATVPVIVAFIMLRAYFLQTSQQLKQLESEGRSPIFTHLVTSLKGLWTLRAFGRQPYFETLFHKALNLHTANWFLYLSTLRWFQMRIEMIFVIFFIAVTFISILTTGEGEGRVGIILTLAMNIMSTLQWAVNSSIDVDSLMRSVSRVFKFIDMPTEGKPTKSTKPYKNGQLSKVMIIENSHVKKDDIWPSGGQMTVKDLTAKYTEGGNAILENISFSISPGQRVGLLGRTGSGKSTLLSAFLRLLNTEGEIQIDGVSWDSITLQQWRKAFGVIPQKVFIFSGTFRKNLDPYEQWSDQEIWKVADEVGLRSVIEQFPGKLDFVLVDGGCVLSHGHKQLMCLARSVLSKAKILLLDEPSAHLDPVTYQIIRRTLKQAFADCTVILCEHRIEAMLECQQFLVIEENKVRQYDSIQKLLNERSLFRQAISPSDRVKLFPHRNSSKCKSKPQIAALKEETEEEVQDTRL

As a reminder, the EC50 is the concentration needed to bring the measured effect to its halfway point. Consider `COc1ncc(C(F)(F)F)cc1CO[C@H]1[C@H](C(C)(C)C)[C@@H](C(=O)O)N(C(=O)[C@@H]2CCCCO2)[C@H]1c1ccccc1Br` [Example 178, (2S,3R,4S,5S)-5-(2-bromophenyl)-3-tert-butyl-4-{[2-methoxy-5-(trifluoromethyl)pyridin-3-yl]methoxy}-1-[(2S)-oxane-2-carbonyl]pyrrolidine-2-carboxylic acid], for which the “Maximum % activity (with co-corrector)” value is listed as “+++ (≥350)”; the “Maximum % activity (without co-corrector)” value was “++ (≥100 and <200)”. Under setting [1], the EC50 was 1000 to 10000 nM. Further, the EC50 under setting [2] is 1000 to 10000 nM.

Take `CCc1ccccc1[C@H]1[C@@H](OCc2cc(C(F)(F)F)cnc2OC)[C@H](C(C)(C)C)[C@@H](C(=O)O)N1C(=O)[C@@H]1CCCCO1` [Example 179, (2S,3R,4S,5S)-3-tert-butyl-5-(2-ethylphenyl)-4-{[2-methoxy-5-(trifluoromethyl)pyridin-3-yl]methoxy}-1-[(2S)-oxane-2-carbonyl]pyrrolidine-2-carboxylic acid]: the “Maximum % activity (with co-corrector)” value was “+++ (≥350)” and the “Maximum % activity (without co-corrector)” value is on record as “+++ (≥200)”. Further, the concentration for a half-maximal effect (EC50) under setting [1] is less than 1000 nM. For the same molecule, the EC50 under setting [2] is less than 1000 nM.

On to `COc1ncc(C(F)(F)F)cc1CO[C@H]1[C@H](C(C)(C)C)[C@@H](C(=O)O)N(C(=O)[C@@H]2CCCCO2)[C@H]1c1ccccc1-c1ccccc1` [Example 180, (2S,3R,4S,5S)-5-([1,1′-biphenyl]-2-yl)-3-tert-butyl-4-{[2-methoxy-5-(trifluoromethyl)pyridin-3-yl]methoxy}-1-[(2S)-oxane-2-carbonyl]pyrrolidine-2-carboxylic acid], for which the “Maximum % activity (with co-corrector)” value was “+++ (≥350)” and the “Maximum % activity (without co-corrector)” value was “+++ (≥200)”. Also, under setting [1], the 50% effective concentration (EC50) was less than 1000 nM. The EC50 under setting [2] was less than 1000 nM.

For `COc1ncc(C(F)(F)F)cc1CO[C@H]1[C@H](C(C)(C)C)[C@@H](C(=O)O)N(C(=O)[C@@H]2CCCCO2)[C@H]1c1ccccc1-c1ccc(=O)n(C)c1` [Example 181, (2S,3R,4S,5S)-3-tert-butyl-4-{[2-methoxy-5-(trifluoromethyl)pyridin-3-yl]methoxy}-5-[2-(1-methyl-6-oxo-1,6-dihydropyridin-3-yl)phenyl]-1-[(2S)-oxane-2-carbonyl]pyrrolidine-2-carboxylic acid], the “Maximum % activity (with co-corrector)” value was “++ (≥150 and <350)”; the “Maximum % activity (without co-corrector)” value is “+ (<100)”. In addition, the EC50 under setting [1] is more than 10000 nM. Further, the half-maximal effective concentration (EC50) under setting [2] lay in the range of 1000 to 10000 nM.

For the molecule `COc1ncc(C2CCC2)cc1CO[C@H]1[C@H](C(C)(C)C)[C@@H](C(=O)O)N(C(=O)C2CCCCC2)[C@H]1c1ccccc1C1CC1` [Example 182, (2S,3R,4S,5S)-3-tert-butyl-4-[(5-cyclobutyl-2-methoxypyridin-3-yl)methoxy]-1-(cyclohexanecarbonyl)-5-(2-cyclopropylphenyl)pyrrolidine-2-carboxylic acid], the “Maximum % activity (with co-corrector)” value is recorded as “+++ (≥350)” and the “Maximum % activity (without co-corrector)” value is “+++ (≥200)”. In addition, the EC50 under setting [1] fell in the range of 1000 to 10000 nM. For the same molecule, the concentration giving a half-maximal response (EC50) under setting [2] is less than 1000 nM.

With `COc1ncc(C2CCC2)cc1CO[C@H]1[C@H](C(C)(C)C)[C@@H](C(=O)O)N(C(=O)C2CCCCC2)[C@H]1c1ccccc1Br` [Example 183, (2S,3R,4S,5S)-5-(2-bromophenyl)-3-tert-butyl-4-[(5-cyclobutyl-2-methoxypyridin-3-yl)methoxy]-1-(cyclohexanecarbonyl)pyrrolidine-2-carboxylic acid], the “Maximum % activity (with co-corrector)” value is recorded as “+++ (≥350)”; the “Maximum % activity (without co-corrector)” value was “++ (≥100 and <200)”. The EC50 under setting [1] lay within 1000 to 10000 nM. In addition, the EC50 under setting [2] is 1000 to 10000 nM.

As for `CCc1ccccc1[C@H]1[C@@H](OCc2ccc(C(F)(F)F)cc2OC)[C@H](C(C)(C)C)[C@@H](C(=O)O)N1C(=O)[C@@H]1CCCCO1` [Example 184, (2S,3R,4S,5S)-3-tert-butyl-5-(2-ethylphenyl)-4-{[2-methoxy-4-(trifluoromethyl)phenyl]methoxy}-1-[(2S)-oxane-2-carbonyl]pyrrolidine-2-carboxylic acid], the “Maximum % activity (with co-corrector)” value is “+++ (≥350)” and the “Maximum % activity (without co-corrector)” value is listed as “+++ (≥200)”. Moreover, the half-maximal effective concentration (EC50) under setting [1] is less than 1000 nM. Besides, the EC50 under setting [2] is less than 1000 nM.

`CCc1ccccc1[C@H]1[C@@H](OCc2cc(C3CCC3)cnc2OC)[C@H](C(C)(C)C)[C@@H](C(=O)O)N1C(=O)[C@@H]1CCCCO1` [Example 185, (2S,3R,4S,5S)-3-tert-butyl-4-[(5-cyclobutyl-2-methoxypyridin-3-yl)methoxy]-5-(2-ethylphenyl)-1-[(2S)-oxane-2-carbonyl]pyrrolidine-2-carboxylic acid]: the “Maximum % activity (with co-corrector)” value is reported as “+++ (≥350)” and the “Maximum % activity (without co-corrector)” value is “+++ (≥200)”. Under setting [1], the concentration for a half-maximal effect (EC50) lay within 1000 to 10000 nM. Moreover, the EC50 under setting [2] was less than 1000 nM.

For the molecule `COc1ccc(C(C)(C)C#N)cc1CO[C@H]1[C@H](C(C)(C)C)[C@@H](C(=O)O)N(C(=O)[C@@H]2CCCCO2)[C@H]1c1ccccc1C` [Example 187, (2S,3R,4S,5S)-3-tert-butyl-4-{[5-(2-cyanopropan-2-yl)-2-methoxyphenyl]methoxy}-5-(2-methylphenyl)-1-[(2S)-oxane-2-carbonyl]pyrrolidine-2-carboxylic acid], the “Maximum % activity (with co-corrector)” value was “+++ (≥350)” and the “Maximum % activity (without co-corrector)” value is “+++ (≥200)”. For the same molecule, the half-maximal effective concentration (EC50) under setting [1] was 1000 to 10000 nM. Also, under setting [2], the EC50 was less than 1000 nM.

On to `COc1ccc(C(C)(C)C)cc1CO[C@H]1[C@H](C(C)(C)C)[C@@H](C(=O)O)N(C(=O)[C@@H]2CCCCO2)[C@H]1c1ccccc1C` [Example 188, (2S,3R,4S,5S)-3-tert-butyl-4-[(5-tert-butyl-2-methoxyphenyl)methoxy]-5-(2-methylphenyl)-1-[(2S)-oxane-2-carbonyl]pyrrolidine-2-carboxylic acid], for which the “Maximum % activity (with co-corrector)” value is given as “+++ (≥350)” and the “Maximum % activity (without co-corrector)” value is recorded as “+++ (≥200)”. In addition, the EC50 under setting [1] was less than 1000 nM. The half-maximal effective concentration (EC50) under setting [2] is less than 1000 nM.

Take `COc1nc2ccccc2cc1CO[C@H]1[C@H](C(C)(C)C)[C@@H](C(=O)O)N(C(=O)[C@@H]2CCCCO2)[C@H]1c1ccccc1C` [Example 189, (2S,3R,4S,5S)-3-tert-butyl-4-[(2-methoxyquinolin-3-yl)methoxy]-5-(2-methylphenyl)-1-[(2S)-oxane-2-carbonyl]pyrrolidine-2-carboxylic acid]: the “Maximum % activity (with co-corrector)” value is given as “+++ (≥350)” and the “Maximum % activity (without co-corrector)” value is on record as “+++ (≥200)”. In addition, the concentration giving a half-maximal response (EC50) under setting [1] fell in the range of 1000 to 10000 nM. In addition, the EC50 under setting [2] lay within 1000 to 10000 nM.

Turning to `COc1ncc(C(F)(F)F)cc1CO[C@H]1[C@H](C(C)(C)C)[C@@H](C(=O)O)N(C(=O)[C@@H]2CCCCO2)[C@H]1c1ccccc1-c1ccc(F)cc1` [Example 190, (2S,3R,4S,5S)-3-tert-butyl-5-(4′-fluoro[1,1′-biphenyl]-2-yl)-4-{[2-methoxy-5-(trifluoromethyl)pyridin-3-yl]methoxy}-1-[(2S)-oxane-2-carbonyl]pyrrolidine-2-carboxylic acid], the “Maximum % activity (with co-corrector)” value was “+++ (≥350)” and the “Maximum % activity (without co-corrector)” value is on record as “+++ (≥200)”. For the same molecule, the half-maximal effective concentration (EC50) under setting [1] lay in the range of 1000 to 10000 nM. Further, under setting [2], the EC50 was 1000 to 10000 nM.
